Tested on: N-terminally deleted tomato dNK enzyme (TOM-ΔNdCK/dGK)
Test: Deoxyribonucleoside kinase activity in extract of KY895 transformed with pGEX-2T-TOM-ΔNdCK/dGK
Format: biochemical, Lycopersicum esculentum
Settings: pGEX-2T-TOM-ΔNdCK/dGK
Protocol: The E. coli strain KY895 (F^−, tdk-1, ilv) [Knecht W, Munch-Petersen B and Piskur J: Identification of residues involved in the specificity and regulation of the highly efficient multisubstrate deoxyribonucleoside kinase from Drosophila melanogaster; J. Mol. Biol. 2000 301 827-837] was transformed by various expression plasmids using standard techniques. Transformed KY895 strains were grown to an OD600 nm of 0.5-0.6 in LB/Ampicillin (100 μg/ml) medium at 37° C., and protein expression was induced by addition of 100 μM IPTG. The cells were further grown for 4 hours at 25° C. and subsequently harvested by centrifugation.
Pellets were stored at −80° C. until activity testing. Pellets were submitted to brief sonification in extraction buffer (50 mM Tris/HCl pH 7.5, 1 mM DTT, 10% (v/v) glycerol, 1% (v/v) Triton X-100, protease inhibitor cocktail (Complete™ from Roche Diagnostics).
Deoxyribonucleoside kinase activities were determined in the KY895 extracts by initial velocity measurements based on four time samples by the DE-81 filter paper assay using tritium-labelled nucleoside substrates. 4 to 20 μg extracts were used in the assays. The assay was done as described by Munch-Petersen et al. [Munch-Petersen, B., Knecht, W, Lenz, C., Sondergaard, L. & Piskur, J: Functional expression of a multisubstrate deoxyribonucleoside kinase from Drosophila melanogaster and its C-terminal deletion mutants; J. Biol. Chem. 2000 275 6673-6679].
The protein concentration was determined according to Bradford with BSA as standard protein [Bradford M M: A rapid and sensitive method for the quantitation of microgram quantities of protein utilizing the principle of protein-dye binding; Anal. Biochem. 1976 72 248-254]. SDS-PAGE was done according to the procedure of Laemmli [Laemmli U K: Cleavage of structural proteins during the assembly of the head of bacteriophage T4; Nature 1970 227 680-685], and proteins were visualized by Coomassie staining to verify recombinant protein expression.
The four natural deoxyribonucleosides were tested at a fixed concentration of 100 μM. The highest specific activity in each extract was set to 100%.

Row | ability to phosphorylate the deoxyribonucleoside (in words) | SMILES
1 | able to phosphorylate | Nc1ncnc2c1ncn2[C@H]1C[C@H](O)[C@@H](CO)O1 [dAdo, deoxyadenosine]
2 | able to phosphorylate | Nc1ccn([C@H]2C[C@H](O)[C@@H](CO)O2)c(=O)n1 [dCyd, deoxycytidine]
